Results reported in patent publication US6180651A, “Diarylmethylidenefuran derivatives, processes for their preparation and their uses in therapeutics” (Bristol-Myers Squibb, priority 1996, dated 2001).

What was measured:
[1] = tested on: carrageenin oedema; assay: anti-inflammatory activity, carrageenin oedema test; assay type: in vivo; conditions: rat, oral; dose which induces 50% decrease in the volume of the oedema; read-out: Anti-inflammatory activity ID50
Procedure: (§1) The anti-inflarnmatory activity of the compounds of the Examples was evaluated by the carrageenin oedema method and the analgesic activity was evaluated by the kaolin arthritis method.
Anti-inflammatory Activity:
The anti-inflammatory activity is evaluated in the rat by the carrageenin oedema test. The product is administered orally at a rate of 2.5 ml/100 g (n=6 animals per dose) 2 h 30 min after oral hyperhydration (2.5 m/100 g); one hour after administration of the product, the oedema is induced by the plantar subcutaneous injection of 2% aqueous carrageenin solution. The results are expressed as the ID50, the dose in mg/kg which induces 50% decrease in the volume of the oedema, calculated by linear regression using the maximum oedema volume obtained for each product tested.

[2] = tested on: kaolin arthritis; assay: analgesic activity, kaolin arthritis test; assay type: in vivo; conditions: rat, oral; dose which induces 50% decrease of the maximum quotation in the control batch; read-out: Analgesic activity DE50
Procedure: as §1
The analgesic activity is evaluated in the rat by the kaolin arthritis test. Thirty minutes after the intra-articular administration of 10% aqueous kaolin suspension, the product is administered orally at a rate of 1 ml/100 g (n=10 animals per dose). The results are expressed as DE50, the dose in mg/kg which induces 50% decrease of the maximum quotation in the control batch, calculated by linear regression.

[3] = molecular target: T1, COX-2 (Ovis aries, UniProt P79208); assay: inhibition of COX-2 enzymatic activity (PGE2 by EIA); assay type: biochemical, ewe; conditions: for IC50: purified enzyme from ewe placenta, arachidonic acid 4 μM, n=1 to 4 determinations; for Selectivity COX-1/COX-2 ratio: ratio of IC50 COX-1 / IC50 COX-2
T1 construct: purified enzyme from ewe placenta; from tissue; host or cells: ewe placenta (purified enzyme)
T1 sequence (P79208 17-603): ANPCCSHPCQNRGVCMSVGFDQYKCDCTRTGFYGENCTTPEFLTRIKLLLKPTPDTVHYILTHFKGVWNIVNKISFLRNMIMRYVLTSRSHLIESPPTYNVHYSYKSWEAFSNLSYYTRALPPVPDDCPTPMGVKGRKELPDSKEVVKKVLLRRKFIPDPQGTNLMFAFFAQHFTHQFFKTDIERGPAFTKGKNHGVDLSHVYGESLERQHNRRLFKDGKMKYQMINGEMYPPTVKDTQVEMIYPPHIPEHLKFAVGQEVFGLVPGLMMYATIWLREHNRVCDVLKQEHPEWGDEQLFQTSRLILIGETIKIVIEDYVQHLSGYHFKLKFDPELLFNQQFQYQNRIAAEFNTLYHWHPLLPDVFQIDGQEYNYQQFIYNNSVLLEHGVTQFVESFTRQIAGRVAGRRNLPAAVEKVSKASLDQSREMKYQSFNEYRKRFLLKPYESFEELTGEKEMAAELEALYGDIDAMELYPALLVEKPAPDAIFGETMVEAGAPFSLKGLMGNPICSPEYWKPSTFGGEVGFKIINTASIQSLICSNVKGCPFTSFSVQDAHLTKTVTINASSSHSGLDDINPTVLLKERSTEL
Procedure: (§2) Inhibition of the COX-1 and COX-2 Enzymatic Activities The test molecule is preincubated for 10 minutes at 25° C. with 2 U of COX-1 (purified enzyme from ram seminal vesicles) or 1 U of COX-2 (purified enzyme from ewe placenta). Arachidonic acid (6 μM for COX-1, 4 μM for COX-2) is added to the reaction medium and incubation is carried out for 5 minutes at 25° C. When incubation has ended, the enzymatic reaction is stopped by the addition of 1 N HCl and the PGE2 produced is determined by EIA. The results are expressed as IC50, the concentration in nM which corresponds to 50% inhibition of the maximal enzymatic activity on the COX-1 and COX-2 (n=1 to 4 determinations).

[4] = molecular target: T2, COX-1 (Ovis aries, UniProt P05979); assay: inhibition of COX-1 enzymatic activity (PGE2 by EIA); assay type: biochemical; conditions: purified enzyme from ram seminal vesicles; arachidonic acid 6 μM; n=1 to 4 determinations
T2 construct: purified enzyme from ram seminal vesicles; from tissue; host or cells: ram seminal vesicles (purified enzyme)
T2 sequence (P05979 25-600): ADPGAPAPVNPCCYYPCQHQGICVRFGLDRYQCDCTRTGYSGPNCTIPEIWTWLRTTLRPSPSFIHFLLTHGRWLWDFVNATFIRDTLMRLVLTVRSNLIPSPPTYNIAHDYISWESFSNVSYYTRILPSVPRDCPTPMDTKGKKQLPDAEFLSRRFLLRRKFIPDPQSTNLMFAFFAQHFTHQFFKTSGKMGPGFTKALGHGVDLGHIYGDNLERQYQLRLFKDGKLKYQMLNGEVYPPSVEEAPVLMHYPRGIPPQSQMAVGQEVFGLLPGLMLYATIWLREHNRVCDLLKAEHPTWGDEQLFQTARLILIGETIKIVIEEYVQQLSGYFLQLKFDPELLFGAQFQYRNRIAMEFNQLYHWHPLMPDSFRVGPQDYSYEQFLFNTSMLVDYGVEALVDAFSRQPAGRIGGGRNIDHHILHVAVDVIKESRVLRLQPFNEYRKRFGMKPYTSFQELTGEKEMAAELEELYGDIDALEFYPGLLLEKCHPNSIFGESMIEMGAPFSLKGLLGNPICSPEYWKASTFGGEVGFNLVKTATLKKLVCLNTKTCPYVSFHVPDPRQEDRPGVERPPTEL
Procedure: as §2

[5] = gastric tolerance, ulceration index; set-up: species or system Charles River rats of the CD strain; conditions: rat, in vivo, po
Procedure: The gastric tolerance is studied on Charles River rats of the CD strain weighing between 110 and 150 g. The animals are placed on a water diet 24 h prior to oral administration of the product or the vehicle only at a rate of 1 ml/100 g (n=6 animals per dose). Six hours after administration,the animals are sacrificed and the stomachs are removed and opened along the large curvature. The number of haemorrhagic puncta and sulci per stomach, identified macroscopically, makes it possible to establish an ulceration index (0: no lesion, 1: 1 to 2 lesions, 2: 3 to 4 lesions, 3: 5 to 8 lesions, 4: 9 to 16 lesions, 5: more than 17 lesions) and to estimate the 50% ulcerigenic dose (UD50 =dose inducing 4 to 5 lesions, expressed in mg/kg).

[6] = tested on: apc/min mice; assay: chemoprevention assay in apc/min mice (model of human familial adenomatous polyposis); assay type: in vivo; conditions: 1.8 mg/kg/day in the feed
Procedure: Chemoprevention Assays in Mice:
The test molecule is given in the feed to apc/min mice, a mouse model of human familial adenomatous polyposis, at 1.8 mg/kg/day for 240 days. The viability and the average tumor burden in animals receiving the test compound is compared to that in control animals.

CS(=O)(=O)c1ccc(/C(=C2\CCOC2=O)c2ccc(F)cc2)cc1 [4 (E isomer), (E)-3-[1-(4-fluorophenyl)-1-(4-methanesulphonylphenyl)methylidene]dihydrofuran-2-one]
ED50 [1]: 1.8 mg/kg
ED50 [2]: 7.6 mg/kg
IC50 [3]: 0.674 ± 0.046 µM
Selectivity COX-1/COX-2 ratio [3]: > 445
IC50 [4]: > 300 µM
TD50 at 6 h [5]: > 1000 mg/kg

CS(=O)(=O)c1ccc(/C(=C2\CCOC2=O)c2ccc(Cl)cc2)cc1 [8 (Z isomer), (Z)-3-[1-(4-chlorophenyl)-1-(4-methanesulphonylphenyl)methylidene]dihydrofuran-2-one]
ED50 [1]: 3.7 mg/kg
ED50 [2]: 2.1 mg/kg
mice still alive ([6]; 240 days, control 8/29): 17/29
average tumor burden ([6]; 240 days, control 16.3 tumors): 11.9 tumors per mouse
viability compared to control ([6]; after 240 days): outliving their control counterparts
IC50 [3]: 0.182 ± 0.025 µM
Selectivity COX-1/COX-2 ratio [3]: 944
IC50 [4]: 172 ± 22.2 µM
TD50 at 6 h [5]: > 1000 mg/kg

NS(=O)(=O)c1ccc(/C(=C2\CCOC2=O)c2ccc(Cl)cc2)cc1 [125 (Z isomer), (Z)-4-[(4-chlorophenyl)-(2-oxo-dihydro-furan-3-ylidene)-methyl]benzenesulphonamide]
ED50 [1]: 1.8 mg/kg
ED50 [2]: 8.5 mg/kg
IC50 [3]: 0.06 µM
Selectivity COX-1/COX-2 ratio [3]: 42
IC50 [4]: 2.52 ± 1.31 µM
TD50 at 6 h [5]: > 1000 mg/kg

Cc1cc(/C(=C2/CCOC2=O)c2ccc(S(N)(=O)=O)cc2)ccc1F [135 (Z isomer), (Z)-4-[(4-fluoro-3-methylphenyl)-(2-oxo-dihydrofuran-3-ylidene)methyl]benzenesulphonamide]
ED50 [1]: 3.3 mg/kg
ED50 [2]: 6.1 mg/kg
IC50 [3]: 0.245 ± 0.076 µM
Selectivity COX-1/COX-2 ratio [3]: 80
IC50 [4]: 19.7 µM

NS(=O)(=O)c1ccc(/C(=C2\CCOC2=O)c2ccc(F)c(Cl)c2)cc1 [143 (Z isomer), (Z)-4-[(3-chloro-4-fluorophenyl)-(2-oxo-dihydro-furan-3-ylidene)methyl]benzenesulphonamide]
ED50 [1]: 0.7 mg/kg
ED50 [2]: 6.4 mg/kg
IC50 [3]: 0.073 µM
Selectivity COX-1/COX-2 ratio [3]: 174
IC50 [4]: 12.7 µM
